In US10798941B2, “Microbiocidal oxadiazole derivatives” (SYNGENTA PARTICIPATIONS AG, priority 2016, dated 2020):

Assays:
[1] = tested on: Puccinia recondita f. Sp. Tritici; experiment: Puccinia recondita f. sp. tritici / wheat / leaf disc curative (brown rust); assay type: in vivo; details: foliar, 144 h, 200 ppm in the applied formulation, wheat leaf segments cv. Kanzler, applied 1 day after inoculation, assessed 6 to 8 days after application, vs untreated, read-out: disease control
Description: (§1) Leaf disks or leaf segments of various plant species are cut from plants grown in a greenhouse. The cut leaf disks or segments are placed in multiwell plates (24-well format) onto water agar. The leaf disks are sprayed with a test solution before (preventative) or after (curative) inoculation. Compounds to be tested are prepared as DMSO solutions (max. 10 mg/ml) which are diluted to the appropriate concentration with 0.025% Tween20 just before spraying. The inoculated leaf disks or segments are incubated under defined conditions (temperature, relative humidity, light, etc.) according to the respective test system. A single evaluation of disease level is carried out 3 to 14 days after inoculation, depending on the pathosystem. Percent disease control relative to the untreated check leaf disks or segments is then calculated.
Wheat leaf segments cv. Kanzler are placed on agar in multiwell plates (24-well format). The leaf segments are then inoculated with a spore suspension of the fungus. Plates were stored in darkness at 19° C. and 75% relative humidity. The formulated test compound diluted in water was applied 1 day after inoculation. The leaf segments were incubated at 19° C. and 75% relative humidity under a light regime of 12 hours light/12 hours darkness in a climate cabinet and the activity of a compound was assessed as percent disease control compared to untreated when an appropriate level of disease damage appears in untreated check leaf segments (6 to 8 days after application).
(§2) The following compounds at 200 ppm in the applied formulation give at least 80% disease control in this test when compared to untreated control leaf disks under the same conditions, which show extensive disease development.

[2] = tested on: Puccinia recondita f. Sp. Tritici; experiment: Puccinia recondita f. sp. tritici / wheat / leaf disc preventative (brown rust); assay type: in vivo; details: foliar, 168 h, 200 ppm in the applied formulation, wheat leaf segments cv. Kanzler, preventative, inoculated 1 day after application, assessed 7 to 9 days after application, vs untreated, read-out: disease control
Description: as §1
Wheat leaf segments cv. Kanzler were placed on agar in multiwell plates (24-well format) and sprayed with the formulated test compound diluted in water. The leaf disks were inoculated with a spore suspension of the fungus 1 day after application. The inoculated leaf segments were incubated at 19° C. and 75% relative humidity (rh) under a light regime of 12 hours light/12 hours darkness in a climate cabinet and the activity of a compound was assessed as percent disease control compared to untreated when an appropriate level of disease damage appears in untreated check leaf segments (7 to 9 days after application).
as §2

[3] = tested on: Glomerella Lagenarium (Colletotrichum Lagenarium); experiment: Glomerella lagenarium (Colletotrichum lagenarium) liquid culture / cucumber / preventative (anthracnose); assay type: cell-based; details: Colletotrichum orbiculare; 20 ppm in the applied formulation; liquid culture in PDB, 24° C., inhibition of growth measured photometrically 3 to 4 days after application, vs untreated; read-out: disease control
Procedure, shortened: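 Conidia from cryogenic storage were mixed into potato dextrose broth. This was added to compound diluted from DMSO into 0.025% Tween20, tested at 20 ppm. Plates were incubated in the dark at 24 °C and 96% relative humidity, and growth was read photometrically after 2–7 days as % activity versus untreated check.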

| SMILES | pest or weed control at 200 ppm [1] | pest or weed control at 200 ppm [2] | inhibition of growth at 20 ppm [3] |
| --- | --- | --- | --- |
| N#Cc1ncn(Cc2ccc(-c3noc(C(F)(F)F)n3)cn2)c1C#N [Compound 1.135, 1-[[5-[5-(trifluoromethyl)-1,2,4-oxadiazol-3-yl]-2-pyridyl]methyl]imidazole-4,5-dicarbonitrile] | ≥ 80% | ≥ 80% | ≥ 80% |
| N#Cc1ncn(Cc2ccc(-c3noc(C(F)(F)F)n3)cc2)c1C#N [Compound 1.45, 1-[[4-[5-(trifluoromethyl)-1,2,4-oxadiazol-3-yl]phenyl]methyl]imidazole-4,5-dicarbonitrile] | ≥ 80% | ≥ 80% | ≥ 80% |
| Fc1cc(-c2noc(C(F)(F)F)n2)ccc1Cn1cc(Br)cn1 [Compound 1.132, 3-[4-[(4-bromopyrazol-1-yl)methyl]-3-fluoro-phenyl]-5-(trifluoromethyl)-1,2,4-oxadiazole] | ≥ 80% | ≥ 80% | ≥ 80% |
| N#Cc1ncn(Cc2ccc(-c3noc(C(F)(F)F)n3)cc2F)c1C#N [Compound 1.119, 1-[[2-fluoro-4-[5-(trifluoromethyl)-1,2,4-oxadiazol-3-yl]phenyl]methyl]imidazole-4,5-dicarbonitrile] | ≥ 80% | ≥ 80% | ≥ 80% |
| COc1ccc(Cc2ccc(-c3noc(C(F)(F)F)n3)cc2)cn1 [Compound 1.254, 3-[4-[(6-methoxy-3-pyridyl)methyl]phenyl]-5-(trifluoromethyl)-1,2,4-oxadiazole] | ≥ 80% | ≥ 80% | ≥ 80% |
| FC(F)(F)c1nc(-c2ccc(Cn3cc(I)cn3)nc2)no1 [Compound 1.144, 3-[6-[(4-iodopyrazol-1-yl)methyl]-3-pyridyl]-5-(trifluoromethyl)-1,2,4-oxadiazole] | ≥ 80% | ≥ 80% | ≥ 80% |
| CON=C1CCN(Cc2ccc(-c3noc(C(F)(F)F)n3)cc2)C1 [Compound 1.292, N-methoxy-1-[[4-[5-(trifluoromethyl)-1,2,4-oxadiazol-3-yl]phenyl]methyl]pyrrolidin-3-imine] | ≥ 80% | ≥ 80% | ≥ 80% |
| CCOC(=O)c1c(C)ncn1Cc1ccc(-c2noc(C(F)(F)F)n2)cc1 [Compound 1.80, ethyl 5-methyl-3-[[4-[5-(trifluoromethyl)-1,2,4-oxadiazol-3-yl]phenyl]methyl]imidazole-4-carboxylate] | ≥ 80% | ≥ 80% | ≥ 80% |
| FC(F)(F)c1nc(-c2ccc(Cn3cnc(Cl)c3Cl)nc2)no1 [Compound 1.137, 3-[6-[(4,5-dichloroimidazol-1-yl)methyl]-3-pyridyl]-5-(trifluoromethyl)-1,2,4-oxadiazole] | ≥ 80% | ≥ 80% | ≥ 80% |
| Cc1cn(Cc2ccc(-c3noc(C(F)(F)F)n3)cc2F)c(C)n1 [Compound 1.145, 3-[4-[(2,4-dimethylimidazol-1-yl)methyl]-3-fluoro-phenyl]-5-(trifluoromethyl)-1,2,4-oxadiazole] | ≥ 80% | ≥ 80% |  |
| FC(F)(F)c1nc(-c2ccc(Cn3ccnc3)nc2)no1 [Compound 1.141, 3-[6-(imidazol-1-ylmethyl)-3-pyridyl]-5-(trifluoromethyl)-1,2,4-oxadiazole] | ≥ 80% | ≥ 80% |  |
| FC(F)(F)c1cnn(Cc2ccc(-c3noc(C(F)(F)F)n3)cc2)c1 [Compound 1.55, 5-(trifluoromethyl)-3-[4-[[4-(trifluoromethyl)pyrazol-1-yl]methyl]phenyl]-1,2,4-oxadiazole] | ≥ 80% | ≥ 80% | ≥ 80% |
| Cn1c(=O)c2c(ncn2Cc2ccc(-c3noc(C(F)(F)F)n3)cc2)n(C)c1=O [Compound 1.81, 1,3-dimethyl-7-[[4-[5-(trifluoromethyl)-1,2,4-oxadiazol-3-yl]phenyl]methyl]purine-2,6-dione] | ≥ 80% | ≥ 80% | ≥ 80% |
| Fc1cc(-c2noc(C(F)(F)F)n2)ccc1Cn1cnc(Br)c1 [Compound 1.120, 3-[4-[(4-bromoimidazol-1-yl)methyl]-3-fluoro-phenyl]-5-(trifluoromethyl)-1,2,4-oxadiazole] | ≥ 80% | ≥ 80% | ≥ 80% |
| N#Cc1ncnn1Cc1ccc(-c2noc(C(F)(F)F)n2)nc1 [Compound 1.258, 2-[[6-[5-(trifluoromethyl)-1,2,4-oxadiazol-3-yl]-3-pyridyl]methyl]-1,2,4-triazole-3-carbonitrile] | ≥ 80% |  | ≥ 80% |
| N#Cc1cnn(Cc2ccc(-c3noc(C(F)(F)F)n3)cc2)c1 [Compound 1.76, 1-[[4-[5-(trifluoromethyl)-1,2,4-oxadiazol-3-yl]phenyl]methyl]pyrazole-4-carbonitrile] | ≥ 80% | ≥ 80% | ≥ 80% |
| Fc1cc(-c2noc(C(F)(F)F)n2)ccc1Cn1cc(I)cn1 [Compound 1.131, 3-[3-fluoro-4-[(4-iodopyrazol-1-yl)methyl]phenyl]-5-(trifluoromethyl)-1,2,4-oxadiazole] | ≥ 80% | ≥ 80% | ≥ 80% |
| FC(F)(F)c1nc(-c2ccc(Cn3cc(Br)cn3)cc2)no1 [Compound 1.77, 3-[4-[(4-bromopyrazol-1-yl)methyl]phenyl]-5-(trifluoromethyl)-1,2,4-oxadiazole] | ≥ 80% |  | ≥ 80% |
| FC(F)(F)c1nc(-c2ccc(Cn3ncnc3C(F)(F)F)cc2)no1 [Compound 1.38, 5-(trifluoromethyl)-3-[4-[[5-(trifluoromethyl)-1,2,4-triazol-1-yl]methyl]phenyl]-1,2,4-oxadiazole] | ≥ 80% |  | ≥ 80% |
| O=Cc1cccn1Cc1ccc(-c2noc(C(F)(F)F)n2)cc1 [Compound 1.62, 1-[[4-[5-(trifluoromethyl)-1,2,4-oxadiazol-3-yl]phenyl]methyl]pyrrole-2-carbaldehyde] | ≥ 80% | ≥ 80% | ≥ 80% |
| Cc1nccn1Cc1ccc(-c2noc(C(F)(F)F)n2)cc1F [Compound 1.123, 3-[3-fluoro-4-[(2-methylimidazol-1-yl)methyl]phenyl]-5-(trifluoromethyl)-1,2,4-oxadiazole] | ≥ 80% | ≥ 80% |  |
| Fc1cc(-c2noc(C(F)(F)F)n2)ccc1Cn1cc(Cl)cn1 [Compound 1.128, 3-[4-[(4-chloropyrazol-1-yl)methyl]-3-fluoro-phenyl]-5-(trifluoromethyl)-1,2,4-oxadiazole] | ≥ 80% | ≥ 80% | ≥ 80% |
| FC(F)(F)c1nc(-c2ccc(Cn3cnc(-c4ccccc4)c3)cc2)no1 [Compound 1.82, 3-[4-[(4-phenylimidazol-1-yl)methyl]phenyl]-5-(trifluoromethyl)-1,2,4-oxadiazole] | ≥ 80% | ≥ 80% | ≥ 80% |
| Fc1cc(-c2noc(C(F)(F)F)n2)ccc1Cn1cnc(Cl)c1Cl [Compound 1.121, 3-[4-[(4,5-dichloroimidazol-1-yl)methyl]-3-fluoro-phenyl]-5-(trifluoromethyl)-1,2,4-oxadiazole] | ≥ 80% | ≥ 80% | ≥ 80% |
| FC(F)(F)c1nc(-c2ccc(Cn3cc(Cl)cn3)cc2)no1 [Compound 1.67, 3-[4-[(4-chloropyrazol-1-yl)methyl]phenyl]-5-(trifluoromethyl)-1,2,4-oxadiazole] | ≥ 80% | ≥ 80% | ≥ 80% |
